The values below come from US7981936B2, “Crystalline ACAT inhibitor” (Graceway Pharmaceuticals, LLC, priority 2005, dated 2011).

`CC(C)c1cccc(C(C)C)c1NC(=O)CC(=O)N(Cc1ccccc1)C(C)C` [Form A polymorph, N-benzyl-N′-(2,6-diisopropyl-phenyl)-N-isopropyl-malonamide] displayed a melting point of 102.3 °C.

For orientation: melting point means the temperature, or range, at which the solid turns liquid.
